Test results reported in patent US12383598B2, “Method for treating gingivitis and gingival atrophy and repairing oral mucosa” (ADVANCED HEALTHTECH BIOPEPTIDE LABORATORIES CO., LTD, priority 2021, dated 2025).
Ends that are not written are not given here. Peptide text beside a SMILES is read from it.

What was measured:
Format in all cases: cell-based
[1] = system: human HGF; experiment: Synthesis of extracellular matrix (ECM) from human HGF; details: 50 μM KTTKS or GEKG; TGF-β1 0, 0.5 and 5 ng/ml; FIG. 10
Procedure: It is determined whether or not there exists synergism between GEKG or KTTKS and TGF-β1 in the synthesis of ECM when human HGF was treated with TGF-β1 (0.5 or 5 ng/ml) alone or in combination with KTTKS or GEKG (50 µM).
Human HGF were pre-cultured in the Dulbecco's Modified Eagle Medium (DMEM) containing 0.2% bovine serum for 24 hours, and then treated with 3 different concentrations (0, 0.5 and 5 ng/ml) of TGF-β1 for 24 hours, followed by further culturing for 24 hours in the absence of KTTKS and GEKG (solid line) or in the presence of 50 μM KTTKS or GEKG (dotted line).

[2] = system: TGF-β1; experiment: Gene expression of TGF-β1 in human gingival fibroblasts (RT-PCR); details: human HGF, FIG. 9A, 9B
[3] = molecular target: TNFα (Homo sapiens, UniProt P01375); experiment: TNFα inhibition in L929 cells; details: for O.D. (TNFα inhibition): O.D. at 490/630 nm
Procedure: (§1) In vitro L929 cell proliferation/cytotoxicity assay was measured in a microtiter plate. L929 cells were cultured in the Eagle's minimum essential medium (EMEM) containing 10% bovine serum, 1% P/S and 1% non-essential amino acids. Converged L929 cells were washed by 2 ml of a phosphate buffer solution (PBS) and then treated with trypsin, followed by resuspension in the EMEM. 200 μl of the cell suspension were taken by suction for cell density counting, and the remaining cell suspension were centrifuged at 1500 rpm for 5 minutes. The supernatant was removed, and the EMEM was added for diluting the cells to form a final concentration of 1.5×10^5 cells/ml. 100 μl of the resultant cell suspension were added to each well of a 96-well flat-bottom microtiter plate, and then incubated at 37° C. and 5% CO2 for 24 hours.
GEKG and KTTKS were re-solved with 1× PBS to form solutions having a concentration equivalent to 1 mg GEKG/ml and 1 mg KTTKS/ml, respectively, followed by further dilution with 1× PBS to form solutions having a concentration of 500, 125, 31.25 […], respectively, and the resultant diluted solutions were mixed with a TNFα solution with an equal volume, and incubated for 1 hour. 50 μl of each of the 4 mixtures were added to the above 96-well flat-bottom microtiter plate containing L929 cells incubated for 24 hours, and actinomycin D (ActD) with a final concentration of 2 μg/ml and TNFα with a final concentration of 0.1 ng/ml were added to each well. Test wells containing 2 μg/ml ActD only and 0.1 ng/ml TNFα only were used as positive controls and blank controls, respectively. The resultant 96-well flat-bottom microtiter plate was further incubated at 37° C. and 5% CO2 for 24 hours. O.D. values at 490/630 nm were measured by a microplate reader. TNFα inhibition was calculated by the following formula: […]

[4] = system: Type I collagen; experiment: Gene expression of Type I collagen in human gingival fibroblasts (RT-PCR); details: concentration of 0 to 40 μl, FIG. 8B
Procedure: Production of Type I collagen in human gingival fibroblasts was observed. There is a dose-dependent relationship between expression of Type I collagen and GEKG and KTTKS in a concentration of 0 to 40 μl.

[5] = system: macrophages; experiment: H2O2 production from macrophages induced by LPS; details: in vitro; FIG. 5
Procedure: An ability of GEKG and KTTKS against inflammatory oxidation pressure in vitro was evaluated by using the well-known inflammation model of H2O2 production from macrophages induced by lipopolysaccharide (LPS).

[6] = system: primary oral epithelial cells; experiment: Death of primary oral epithelial cells induced by free radical H2O2; details: different concentrations, in vitro; FIG. 7
[7] = system: macrophages; experiment: NO production from macrophages induced by LPS; details: in vitro; FIGS. 3 and 4
Procedure: In vitro anti-inflammation of GEKG and KTTKS was evaluated by using the well-known inflammation model of NO production from macrophages induced by lipopolysaccharide (LPS).

[8] = Cytotoxicity to L929 cells (XTT); details: mouse, L929 cells
Procedure: as §1
(§2) GEKG and KTTKS were re-solved with 1× PBS to form solutions having a concentration equivalent to 1 mg GEKG/ml and 1 mg KTTKS/ml, respectively, followed by further […], respectively. 50 μl of each of the 4 diluted solutions were added to the above 96-well flat-bottom microtiter plate containing L929 cells incubated for 24 hours, and ActD with a final concentration of 2 μg/ml was added to each well. The resultant 96-well flat-bottom microtiter plate was further incubated at 37° C. and 5% CO2 for 24 hours, followed by addition of 50 μl of 2,3-bis(2-methoxy-4-nitro-5-sulfophenyl)-5-[(phenylamino)carbonyl]-2H-tetrazolium hydroxide (XTT) to each well and further incubation for 1 hour. O.D. values at 490/630 nm were measured by a microplate reader. Cytotoxicity was calculated by the following formula: […]

[9] = system: L929 cells; experiment: Cytotoxicity to L929 cells (XTT); details: for O.D. (cytotoxicity): O.D. at 490/630 nm; for Cytotoxicity to L929 cells (in words): series of dilutions
Procedure: as §1, §2

[10] = system: primary oral epithelial cells; experiment: Proliferation of primary oral epithelial cells; details: different concentrations, in vitro; FIG. 6
[11] = system: human gingival fibroblasts (HGF); experiment: Proliferation of human gingival fibroblasts (HGF); details: different concentrations, in vitro; FIG. 8A

TNFα, sequence (P01375 77-233 limits assumed, species assumed): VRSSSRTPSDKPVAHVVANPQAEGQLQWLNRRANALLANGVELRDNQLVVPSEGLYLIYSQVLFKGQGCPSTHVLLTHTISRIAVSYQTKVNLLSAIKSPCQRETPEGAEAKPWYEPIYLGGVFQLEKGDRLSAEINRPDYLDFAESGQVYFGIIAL

TGF-β1: tumor growth factor-β1 used at 0.5 or 5 ng/ml to treat human HGF [reference compound]
Synthesis of ECM (collagen and fibrin) from human HGF [1]: up-regulate biosynthesis of ECM

NCCCC[C@H](NC(=O)[C@H](CCC(=O)O)NC(=O)CN)C(=O)NCC(=O)O [GEKG] (H-GEKG-OH)
Synthesis of ECM (collagen and fibrin) from human HGF [1]: exhibit a more significant ability in inducing human HGF for synthesizing ECM than TGF-β1
Gene expression of TGF-β1 [2]: stimulate gene expression of TGF-β1 in transcription
O.D. (TNFα inhibition) ([3]; GEKG dilution 1/16): 1.60
O.D. (TNFα inhibition) ([3]; GEKG dilution 1/64): 0.80
O.D. (TNFα inhibition) ([3]; GEKG dilution 1/256): 0.61
O.D. (TNFα inhibition) ([3]; GEKG dilution 1/512): 0.56
O.D. (TNFα inhibition) ([3]; GEKG dilution 1/1024): 0.51
O.D. (TNFα inhibition) ([3]; GEKG dilution 1/2048): 0.48
O.D. (TNFα inhibition) ([3]; GEKG dilution 1/4096): 0.51
O.D. (TNFα inhibition) ([3]; GEKG dilution ¼): 2.87
Gene expression of Type I collagen [4]: stimulate gene expression of Type I collagen in transcription
Inhibition of H2O2 production from macrophages induced by LPS [5]: inhibit H2O2 production from macrophages induced by LPS in a dose-dependent manner
Reduction of death of primary oral epithelial cells induced by free radical H2O2 [6]: reduce death of primary oral epithelial cells induced by free radical H2O2 in vitro in a dose-dependent manner
Inhibition of NO production from macrophages induced by LPS [7]: inhibit NO production from macrophages induced by LPS in a dose-dependent manner
cytotoxicity at 24 h ([8]; GEKG dilution 1/16): -12.3%
cytotoxicity at 24 h ([8]; GEKG dilution 1/64): -2.32%
cytotoxicity at 24 h ([8]; GEKG dilution 1/256): -4.61%
cytotoxicity at 24 h ([8]; GEKG dilution 1/512): -1.71%
cytotoxicity at 24 h ([8]; GEKG dilution 1/1024): 0.11%
cytotoxicity at 24 h ([8]; GEKG dilution 1/2048): 1.9%
cytotoxicity at 24 h ([8]; GEKG dilution 1/4096): -4.72%
cytotoxicity at 24 h ([8]; GEKG dilution ¼): -58.7%
O.D. (cytotoxicity) ([9]; GEKG dilution 1/16): 2.01
O.D. (cytotoxicity) ([9]; GEKG dilution 1/64): 1.83
O.D. (cytotoxicity) ([9]; GEKG dilution 1/256): 1.87
O.D. (cytotoxicity) ([9]; GEKG dilution 1/512): 1.82
O.D. (cytotoxicity) ([9]; GEKG dilution 1/1024): 1.79
O.D. (cytotoxicity) ([9]; GEKG dilution 1/2048): 1.75
O.D. (cytotoxicity) ([9]; GEKG dilution 1/4096): 1.87
O.D. (cytotoxicity) ([9]; GEKG dilution ¼): 2.84
Cytotoxicity to L929 cells (in words) [9]: does not induce cytotoxicity
Promotion of proliferation of primary oral epithelial cells [10]: promote proliferation of primary oral epithelial cells in vitro in a dose-dependent manner
Effect on proliferation of HGF [11]: neither GEKG nor KTTKS in different concentrations exhibits a significant effect in promoting proliferation of HGF

KTTKS [KTTKS]
Synthesis of ECM (collagen and fibrin) from human HGF [1]: exhibit a more significant ability in inducing human HGF for synthesizing ECM than TGF-β1
Gene expression of TGF-β1 [2]: stimulate gene expression of TGF-β1 in transcription
O.D. (TNFα inhibition) ([3]; KTTKS 4.156 μg/ml): 0.479
O.D. (TNFα inhibition) ([3]; KTTKS 16.625 μg/ml): 0.597
O.D. (TNFα inhibition) ([3]; KTTKS 66.5 μg/ml): 1.042
O.D. (TNFα inhibition) ([3]; KTTKS 266 μg/ml): 2.363
inhibition at 4.156 µg/mL ([3]; L929, KTTKS 4.156 μg/ml): 10.5%
inhibition at 16.625 µg/mL ([3]; L929, KTTKS 16.625 μg/ml): 21.1%
inhibition at 66.5 µg/mL ([3]; L929, KTTKS 66.5 μg/ml): 60.9%
inhibition at 266 µg/mL ([3]; L929, KTTKS 266 μg/ml): 179%
Gene expression of Type I collagen [4]: stimulate gene expression of Type I collagen in transcription
Inhibition of H2O2 production from macrophages induced by LPS [5]: inhibit H2O2 production from macrophages induced by LPS in a dose-dependent manner
Reduction of death of primary oral epithelial cells induced by free radical H2O2 [6]: reduce death of primary oral epithelial cells induced by free radical H2O2 in vitro in a dose-dependent manner
Inhibition of NO production from macrophages induced by LPS [7]: inhibit NO production from macrophages induced by LPS in a dose-dependent manner
cytotoxicity at 24 h, 4.156 μg/ml ([8]; KTTKS 4.156 μg/ml): -8.3%
cytotoxicity at 24 h, 16.625 μg/ml ([8]; KTTKS 16.625 μg/ml): -3.9%
cytotoxicity at 24 h, 66.5 μg/ml ([8]; KTTKS 66.5 μg/ml): -20.8%
cytotoxicity at 24 h, 266 μg/ml ([8]; KTTKS 266 μg/ml): -77.1%
O.D. (cytotoxicity) ([9]; KTTKS 4.156 μg/ml): 1.600
O.D. (cytotoxicity) ([9]; KTTKS 16.625 μg/ml): 1.535
O.D. (cytotoxicity) ([9]; KTTKS 66.5 μg/ml): 1.784
O.D. (cytotoxicity) ([9]; KTTKS 266 μg/ml): 2.616
Cytotoxicity to L929 cells (in words) [9]: does not induce cytotoxicity
Promotion of proliferation of primary oral epithelial cells [10]: promote proliferation of primary oral epithelial cells in vitro in a dose-dependent manner
Effect on proliferation of HGF [11]: neither GEKG nor KTTKS in different concentrations exhibits a significant effect in promoting proliferation of HGF
